What was measured:
[1] = tested on: Herpes-Virus (Herpes Simplex, HSV); assay: Antiviral/virucidal efficacy against HSV, plaque reduction in VERO cells; type: cell-based; settings: compared to simple medium, 2880 min
Protocol: (§1) The antiviral/virucidal efficacy against HSV of an aqueous microemulsion prepared with appropriate MARIGENOL®-concentrates was assessed on a confluent monolayer culture of VERO cells (i.e. "African green monkey kidney cells"). The host cells were pretreated during 3 h at 4° C. with an inventive microemulsion or with culture medium alone and then infected with HSV at a constant dose of 10^4 plaque forming units (PFU). After virus absorption during 1 h, and subsequent addition of 2% methylcellulose in order to limit virus spreading, cells were cultured in MEM medium+2% foetal calf serum for 48 h, then fixed and stained with 1% crystal violet in methanol. The reduction of viral titre was expressed as percent reduction of plaques of lysis observed in pre-treated cells, compared to controls.
Infection was also detected by IFA at 24 h after inoculation, using a Mab specific for a glycoprotein common to HSV-1/HSV-2 (clone FQ 12, Argene Biosoft, BIOLINE, Torino).
The following test substances were assessed as concentrates in aqueous dilution (starting with a microemulsion 1:100): […]

VERO cells = assay: Cell lysis in VERO cell layers; type: cell-based, African green monkey; settings: dilution 1:1'000; plaque reduction table
Protocol: as §1

[2] = tested on: Py6 cells (Virus transformed 3T3 mouse-fibroblasts); assay: Test of cell toxicity / cytotoxicity of MARIGENOL concentrates on Py6 cells (plaque assay, serial dilution); type: cell-based; settings: for in dilution active up to 1: (microemulsion ME 1:100): dilution of ME 1:100, given in Mio.
Protocol: A biological assay system using microtiter plates and serial dilutions has been developed. Batches of 10^4 tumour cells per ml were set up in culture medium RPMI 1640 and inactivated with 10% of fetal calf serum (GIBCO); they are spread at a density low enough to enable them to grow during the assay, in non-confluent monolayers. Samples are added after 6 to 24 hours, with 100 μl per row, to which 100 μl of medium are added in the first well. Half of this mixture is withdrawn, transferred into the next well and again treated with 100 μl of medium, etc.
[…] They are then stained and fixed using 0.1% crystal violet (Fluka, Buchs) in a solution of 70% of methanol, 1% of formaldehyde and 29% of water. The samples are evaluated under the microscope, magnification 300×. The greatest cytotoxic dilution is determined. The samples can also be evaluated quantitatively by means of scanning and absorption measurement in a spectrophotometer.
N.B.: On the subject of the eternalized Py6-cells cf.: "Biochemistry", Coordinating Editor Geoffrey L. Zubay, Addison-Wesley Publishing Company, 1983, p.1079.

[3] = Micellar size by dynamic light scattering; type: physicochemical; settings: aqueous emulsion 1:100 of 1%-concentrate; DLS
Text: [Measurement conducted with QLS=quasi-elastic, dynamic light scattering; tests performed at the Federal Institute for Technology, Zurich, Institute for Polymers (Prof. Dr. Pier Luigi LUISI and Prof. Dr. Peter SCHURTENBERGER)]. See: "Mode-selective dynamic light scattering; theory versus experimental realization", Thomas Gisler, et al., Applied Optics/Vol. 34, No. 18/Jun. 20, 1995, pp. 3546-3553.
Measurement conducted with aqueous emulsions 1:100 (CMC-marginal value for a homogenous spreading of the surfactants), prepared from the 1%-concentrates. Method: dynamic light scattering (DLS) in 3 angular positions each (60°, 90° and 120°), and with 10 single measurements taken each time. The instrument is a specially equipped "Fiberoptic Spectrometer" of the Institute for Polymers. Description of the method and the instrument, see: "Mode-selective dynamic light scattering: theory versus experimental realization". Thomas Gisler et al., Applied Optics/Vol. 34, No. 18/Jun. 20, 1995.

[4] = tested on: HIV isolates from patients (strains 21/4 and 4/5); assay: Effect on HIV infectivity, residual HIV titre (direct antiviral efficacy); type: cell-based; settings: mean titre of 2 strains, 3 h, +4° C.
Protocol: Aliquote amounts of two HIV isolates from patients (strains 21/4 and 4/5) resuspended in complete RPMI medium at a titre of 300 CCID50 /ml were incubated during 3 hours, +4° C. with MARIGENOL®-concentrate, in the form of an aqueous microemulsion, at concentrations ranging from 10^-2 to 10^-5 in complete medium, as well as with ("empty") carrier concentrate and with medium alone as controls.
After pre-incubation, residual HIV titre was assessed by the CCID50 method (Cell-culture infecting dose 50%). Briefly, serial twofold dilutions were prepared from each of the six virus suspensions, and 200 μl of each dilution were incubated for 90 minutes with MT-4 cell pellets prepared as stated before (see 7.1). At the end of incubation, pellets were brought to initial cell concentration by adding appropriate amounts of complete RPMI medium to each tube, whose content was then distributed into 8 wells of a flat-bottom microtitre plate in 200 μl volumes, each vertical row coresponding to a dilution. After 5 days of incubation, cell viability was assessed by the MTT test as stated above, and the HIV titre was expressed as the reciprocal of that dilution which infects 4 out of 8 wells (50%) in a row. A well was considered infected when its O.D. readout at 550 nm was lower than the average readout of 8 control wells minus 2.8 times the standard error of the mean (lower 95% confidence limit).

human CMV-strain AD169 = assay: Virucidal efficacy on human cytomegalovirus (immunofluorescence); type: cell-based; settings: control 15'000
Protocol: The assay was conducted with human, embryonic Lung Fibroblasts as host cells, which were then infected with the human CMV-strain AD169.
The virus strain was incubated during 4 h at +4° C. with varying concentrations of the test substance C16:0 -β-Sitosteryl ester, formulated as a 1%-concentrate and diluted to aqueous microemulsions 10^-3, 10^-4 and 10^-5. It was subsequently inoculated on monolayers of human embryonic lung fibroblasts (which are very susceptible to the CMV-virus). These host cells were grown in shell vials in minimal essential medium (MEM, GIBCO, Life Technologies), containing 10% fetal calf serum. A confluent culture was raised with 120,000 cells per shell-vial. The infection was effected by means of centrifugation during 45 minutes at 1'500 rpm at RT. Thereafter, the injection-suspension was eliminated and 1 ml medium MEM+2% FCS was added (same medium as before). The infected cell culture was maintained during 20 h at 37° C., in a 5%-CO2 -atmosphere. […]
Quantification of the virucidal effect was measured with an immunofluorescence assay. […]
This is followed by 3 washing operations with PBS and a second incubation with the fluorescence-marked antibody IgG goat anti-IgG mouse. […]
The number of IEA-positive cells was recorded. The nuclei which were positive against the CMV-specific antigen were counted by means of the fluorescence microscope, magnification 25×, in aqueous phase.

HIV strain III B = assay: Protective effect on MT-4 host cells against HIV infection (MTT); type: cell-based; settings: stock ultramicroemulsions, 10^-3 to 10^-4, concentration not stated
Protocol: MT4-cells (an immortalized T-cell line highly sensitive to HIV cytopathoge-nic effect, CPE) of a 24 h-old culture were suspended at a concentration of 2×10^5 /ml, divided into 1.2 ml aliquotes in polypropylene tubes, and pelleted by centrifugation. Pellets were either infected with 200 μl of a stock solution of HIV strain III B (Titre: 600 CCID50 /ml), or mock-infected with plain medium, for 90 min. at 37° C, upon which 1 ml of plain medium was added to each tube, restoring initial cell concentration and bringing HIV concentration to 100 CCID50 /ml. [CCID50 /ml=50% cell culture infective dose].
100 μl volumes of the MARIGENOL®-Concentrates to be tested, diluted to aqueous microemulsions 10^-3 and then further diluted from 10^-3 to […] in RPMI 1640 medium, or of plain medium, were added in triplicate to flat-bottom, 96-well microtitre plates. […]
Cultures were incubated at 37° C., in a humified atmosphere of 5% CO2 +95% air. Five days after infection, 100 μl of supernatant were removed from each well, and cell viability was assessed by reduction of a methyl-tetrazolium salt (MTT, Sigma, 25 μl/well of a 5 mg/ml solution) in a 2-h incubation test, followed by solubilization with 100 μl DMSO/well and photometric readout of the optical density at 550 nm. Residual cell viability was expressed as percent difference from HIV CPE-control cultures mean readout, considered as zero.

Structure (SMILES): CCCCCCCCCCCC(=O)O[C@H]1CC[C@@]2(C)C(=CC=C3[C@@H]4CC[C@H]([C@H](C)/C=C/[C@H](C)C(C)C)[C@@]4(C)CC[C@@H]32)C1 [C12:0 -ERGO ESTER (ERGOST. LAURATE), (3β, 22E)-Ergosta-5,7,22-triene-3-ol-laurate]
- Percent reduction of plaques in VERO cell monolayers ([1]; dilution 1:10'000): 62%
- Percent reduction of plaques in VERO cell monolayers ([1]; dilution 1:100'000): 0%
- Cell-Lysis (VERO cells): Cell-Lysis

Structure (SMILES): C=CCCCCCCCCC(=O)Oc1cc(OC(=O)CCCCCCCCC=C)c2c(=O)c(OC(=O)CCCCCCCCC=C)c(-c3ccc(OC(=O)CCCCCCCCC=C)c(OC(=O)CCCCCCCCC=C)c3)oc2c1 [QUERCETIN-PENTA-UNDECENOATE, Quercetin-penta-10-undecenoate]
- in dilution active up to 1: (calculated on active substance content, A.S.) ([2]; 24 h exposure): 25.6 Mio.
- in dilution active up to 1: (calculated on active substance content, A.S.) ([2]; 48 h exposure): 100 Mio.
- in dilution active up to 1: (microemulsion ME 1:100) ([2]; 48 h exposure): 1 Mio.
- in dilution active up to 1: (calculated on active substance content, A.S.) ([2]; 72 h exposure): 200 Mio.
- in dilution active up to 1: (microemulsion ME 1:100) ([2]; 72 h exposure): 2 Mio.
- MICELLAR SIZE in nm [3]: 2-3 nm
- Percent reduction of plaques in VERO cell monolayers ([1]; dilution 1:10'000): 48%
- Percent reduction of plaques in VERO cell monolayers ([1]; dilution 1:100'000): 0%
- Cell-Lysis (VERO cells): Cell-Lysis

Structure (SMILES): CCCCCCCC/C=C\CCCCCCCC(=O)Oc1ccc2c(c1)CC[C@@H]1[C@@H]2CC[C@]2(C)[C@@H](OC(=O)CCCCCCC/C=C\CCCCCCCC)CC[C@@H]12 [β-ESTRADIOL-DI-OLEATE]
- MICELLAR SIZE in nm [3]: 2-3 nm

Structure (SMILES): CCCCCCCCCCCCCCCC(=O)O[C@H]1CC[C@@]2(C)C(=CC[C@H]3[C@@H]4CC[C@H]([C@H](C)CC[C@@H](CC)C(C)C)[C@@]4(C)CC[C@@H]32)C1 [β-SITOSTERYL-PALMITATE, 3β-Stigmast-5-en-3-palmitate]
- RESIDUAL HIV TITRE (CCID50) ([4]; concentrate 1'000 ppm, active substance 10 ppm): 2 CCID50
- RESIDUAL HIV TITRE (CCID50) ([4]; concentrate 10 ppm, active substance 0.1 ppm): 120 CCID50
- RESIDUAL HIV TITRE (CCID50) ([4]; concentrate 50 ppm, active substance 0.5 ppm): 76 CCID50
- RESIDUAL HIV TITRE (CCID50) ([4]; concentrate 100 ppm, active substance 1 ppm): 50 CCID50
- Number of the positive nuclei (anti P-72 antigens) (human CMV-strain AD169; microemulsion 1:1'000 = 1'000 ppm concentrate): 0
- Number of the positive nuclei (anti P-72 antigens) (human CMV-strain AD169; microemulsion 1:10'000 = 100 ppm concentrate): 2
- Percent reduction of plaques in VERO cell monolayers ([1]; dilution 1:10'000): 24%
- Percent reduction of plaques in VERO cell monolayers ([1]; dilution 1:100'000): 0%
- Cell-Lysis (VERO cells): Cell-Lysis

Structure (SMILES): CCCCCCCCCCCCCCCCCCCC(=O)O[C@H]1CC[C@@]2(C)C(=CC[C@H]3[C@@H]4CC[C@H]([C@H](C)CC[C@@H](CC)C(C)C)[C@@]4(C)CC[C@@H]32)C1 [β-Sitosteryl-Arachidate, 3β-Stigmast-5-en-3-arachidate]
- Percent reduction of plaques in VERO cell monolayers ([1]; dilution 1:10'000): 76%
- Percent reduction of plaques in VERO cell monolayers ([1]; dilution 1:100'000): 5%
- Cell-Lysis (VERO cells): Cell-Lysis

Structure (SMILES): CCCCCC(=O)O[C@H]1CC[C@@]2(C)C(=CC[C@H]3[C@@H]4CC[C@H]([C@H](C)CC[C@@H](CC)C(C)C)[C@@]4(C)CC[C@@H]32)C1 [β-Sitosteryl-Caproylate]
- protective action on MT-4 cells against HIV (HIV strain III B): very remarkable results
- protective action on MT-4 cells against HIV (HIV strain III B; listed as β-Sitosterypl-Caproylate): Similar, though less remarkable results
